The target of this assay is T1, human Orexin-2 receptor (Homo sapiens, UniProt O43614).
T1 construct: expressed in transfected cells; host or cells: HEK293 cells (transient transfection, Genejuice); membranes
T1 sequence (O43614 1-444): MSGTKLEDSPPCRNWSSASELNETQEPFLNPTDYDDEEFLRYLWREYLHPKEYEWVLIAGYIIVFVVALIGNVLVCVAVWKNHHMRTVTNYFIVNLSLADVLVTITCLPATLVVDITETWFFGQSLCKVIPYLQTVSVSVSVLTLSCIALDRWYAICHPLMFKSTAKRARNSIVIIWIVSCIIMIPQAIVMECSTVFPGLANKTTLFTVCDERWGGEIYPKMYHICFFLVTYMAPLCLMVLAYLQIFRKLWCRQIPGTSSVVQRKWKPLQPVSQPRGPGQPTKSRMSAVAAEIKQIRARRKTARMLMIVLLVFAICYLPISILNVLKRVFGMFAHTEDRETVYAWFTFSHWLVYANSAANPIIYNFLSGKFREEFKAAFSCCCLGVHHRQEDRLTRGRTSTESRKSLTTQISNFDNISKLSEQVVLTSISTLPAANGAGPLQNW
As to the kind of experiment: 3H-EMPA radioligand binding assay. Conditions: 3H-EMPA displacement, membranes of HEK293 cells transfected with human Orexin-2 receptor; KI by Cheng-Prussoff; read-out: OX2 pKi ave (converted). A digest of the protocol:
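Membranes from HEK293 cells transiently transfected with human orexin-2 receptor cDNA, assayed with [3H]EMPA. Bound ligand collected on PEI-treated GF/B filters and counted by scintillation; IC50 from inhibition curves, Ki by Cheng-Prusoff.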
`Cc1noc(C)c1CCN1C(=O)N(Cc2c(F)cccc2F)c2ccccc2S1(=O)=O` [Example 120, 4-(2,6-Difluorobenzyl)-2-[2-(3,5-dimethyl-1,2-oxazol-4-yl)ethyl]-2H-1,2,4-benzothiadiazin-3(4H)-one 1,1-dioxide]: the Ki is 178 nM.

With `COc1ccnc(CN2C(=O)N(Cc3c(F)cccc3F)c3ccccc3S2(=O)=O)c1OC` [Example 121, 4-(2,6-Difluorobenzyl)-2-[(3,4-dimethoxypyridin-2-yl)methyl]-2H-1,2,4-benzothiadiazin-3(4H)-one 1,1-dioxide], the Ki is 87.1 nM. As for `COc1ccc(N2C(=O)N(Cc3c(F)cccc3Cl)c3ccccc3S2(=O)=O)cn1` [Example 122, 4-(2-Chloro-6-fluorobenzyl)-2-(6-methoxypyridin-3-yl)-2H-1,2,4-benzothiadiazin-3(4H)-one 1,1-dioxide], the Ki is 16.6 nM. With `COc1ccc(N2C(=O)N(Cc3c(F)cccc3Cl)c3c(F)cccc3S2(=O)=O)cn1` [Example 123, 4-(2-Chloro-6-fluorobenzyl)-5-fluoro-2-(6-methoxypyridin-3-yl)-2H-1,2,4-benzothiadiazin-3(4H)-one 1,1-dioxide] the figure was 43.7 nM; with `O=C1N(Cc2c(F)cc(F)cc2F)c2ccccc2S(=O)(=O)N1c1ccc2ncsc2c1` [Example 124, 2-(1,3-Benzothiazol-6-yl)-4-(2,4,6-trifluorobenzyl)-2H-1,2,4-benzothiadiazin-3(4H)-one 1,1-dioxide], 5.01 nM. As for `Cn1nc(CN2C(=O)N(Cc3c(F)cccc3F)c3ccccc3S2(=O)=O)c2ccccc21` [Example 125, 4-(2,6-Difluorobenzyl)-2-[(1-methyl-1H-indazol-3-yl)methyl]-2H-1,2,4-benzothiadiazin-3(4H)-one 1,1-dioxide], the Ki was 38 nM. Consider `O=C1N(Cc2c(F)cccc2F)c2ccccc2S(=O)(=O)N1Cc1cc(=O)[nH]c2ccccc12` [Example 126, 4-(2,6-Difluorobenzyl)-2-[(2-oxo-1,2-dihydroquinolin-4-yl)methyl]-2H-1,2,4-benzothiadiazin-3(4H)-one 1,1-dioxide], for which the Ki is 35.5 nM. With `Cc1cc(CN2C(=O)N(Cc3c(F)cccc3Cl)c3ccccc3S2(=O)=O)n(C)n1` [Example 127, 4-(2-Chloro-6-fluorobenzyl)-2-[(1,3-dimethyl-1H-pyrazol-5-yl)methyl]-2H-1,2,4-benzothiadiazin-3(4H)-one 1,1-dioxide] the figure was 58.9 nM. With `O=C1N(Cc2c(F)cccc2Cl)c2ccccc2S(=O)(=O)N1Cc1ccccn1` [Example 128, 4-(2-Chloro-6-fluorobenzyl)-2-(pyridin-2-ylmethyl)-2H-1,2,4-benzothiadiazin-3(4H)-one 1,1-dioxide] the figure was 79.4 nM.

Take `Cc1cc(CN2C(=O)N(Cc3c(F)cccc3Cl)c3ccccc3S2(=O)=O)no1` [Example 129, 4-(2-Chloro-6-fluorobenzyl)-2-[(5-methyl-1,2-oxazol-3-yl)methyl]-2H-1,2,4-benzothiadiazin-3(4H)-one 1,1-dioxide]: the Ki was 115 nM. The figure for `COc1ccc(N2C(=O)N(Cc3ccccc3C)c3c(F)cccc3S2(=O)=O)cn1` [Example 130, 5-Fluoro-2-(6-methoxypyridin-3-yl)-4-(2-methylbenzyl)-2H-1,2,4-benzothiadiazin-3(4H)-one 1,1-dioxide] is 87.1 nM. With `Cn1ccnc1CN1C(=O)N(Cc2c(F)cccc2F)c2ccccc2S1(=O)=O` [Example 131, 4-(2,6-Difluorobenzyl)-2-[(1-methyl-1H-imidazol-2-yl)methyl]-2H-1,2,4-benzothiadiazin-3(4H)-one 1,1-dioxide] the figure was 295 nM; with `Cn1cc(N2C(=O)N(Cc3c(F)cccc3Cl)c3ccccc3S2(=O)=O)ccc1=O` [Example 132, 4-(2-Chloro-6-fluorobenzyl)-2-(1-methyl-6-oxo-1,6-dihydropyridin-3-yl)-2H-1,2,4-benzothiadiazin-3(4H)-one 1,1-dioxide], 302 nM.

Consider `CCN1CCCC(N2C(=O)N(Cc3c(F)cccc3F)c3ccccc3S2(=O)=O)C1` (stereo not drawn) [Example 133, 4-(2,6-Difluorobenzyl)-2-(1-ethylpiperidin-3-yl)-2H-1,2,4-benzothiadiazin-3(4H)-one 1,1-dioxide], for which the Ki is 661 nM.

As for `Cc1cc(CN2C(=O)N(Cc3ccc(Cl)cc3F)c3ccccc3S2(=O)=O)n(C)n1` [Example 134, 4-(4-Chloro-2-fluorobenzyl)-2-[(1,3-dimethyl-1H-pyrazol-5-yl)methyl]-2H-1,2,4-benzothiadiazin-3(4H)-one 1,1-dioxide], the Ki was 39.8 nM. With `COc1ccc(N2C(=O)N(Cc3c(F)cc(C)cc3Cl)c3ccccc3S2(=O)=O)cn1` [Example 135, 4-(2-Chloro-6-fluoro-4-methylbenzyl)-2-(6-methoxypyridin-3-yl)-2H-1,2,4-benzothiadiazin-3(4H)-one 1,1-dioxide] the figure was 13.8 nM. With `COc1cc(F)c(CN2C(=O)N(c3ccc(OC)nc3)S(=O)(=O)c3ccccc32)c(F)c1` [Example 136, 4-(2,6-Difluoro-4-methoxybenzyl)-2-(6-methoxypyridin-3-yl)-2H-1,2,4-benzothiadiazin-3(4H)-one 1,1-dioxide] the figure was 10.7 nM. The figure for `COc1ncc(N2C(=O)N(Cc3c(F)cccc3Cl)c3ccccc3S2(=O)=O)cn1` [Example 137, 4-(2-Chloro-6-fluorobenzyl)-2-(2-methoxypyrimidin-5-yl)-2H-1,2,4-benzothiadiazin-3(4H)-one 1,1-dioxide] is 38 nM; for `COc1cc(F)c(CN2C(=O)N(c3cccc(OC)n3)S(=O)(=O)c3ccccc32)c(F)c1` [Example 138, 4-(2,6-Difluoro-4-methoxybenzyl)-2-(6-methoxypyridin-2-yl)-2H-1,2,4-benzothiadiazin-3(4H)-one 1,1-dioxide] it is 1.45 nM; for `COc1cccc(N2C(=O)N(Cc3c(F)cc(F)cc3Cl)c3ccccc3S2(=O)=O)n1` [Example 139, 4-(2-Chloro-4,6-difluorobenzyl)-2-(6-methoxypyridin-2-yl)-2H-1,2,4-benzothiadiazin-3(4H)-one 1,1-dioxide] it is 13.8 nM. In the case of `COc1cc(F)c(CN2C(=O)N(c3ccnc(OC)c3)S(=O)(=O)c3ccccc32)c(F)c1` [Example 140, 4-(2,6-Difluoro-4-methoxybenzyl)-2-(2-methoxypyridin-4-yl)-2H-1,2,4-benzothiadiazin-3(4H)-one 1,1-dioxide], the Ki is 3.31 nM. The figure for `COc1cc(N2C(=O)N(Cc3c(F)cc(F)cc3Cl)c3ccccc3S2(=O)=O)ccn1` [Example 141, 4-(2-Chloro-4,6-difluorobenzyl)-2-(2-methoxypyridin-4-yl)-2H-1,2,4-benzothiadiazin-3(4H)-one 1,1-dioxide] is 6.92 nM. The figure for `Cc1ccc(N2C(=O)N(Cc3c(F)cccc3Cl)c3ccccc3S2(=O)=O)cn1` [Example 142, 4-(2-Chloro-6-fluorobenzyl)-2-(6-methylpyridin-3-yl)-2H-1,2,4-benzothiadiazin-3(4H)-one 1,1-dioxide] is 29.5 nM; for `COc1cc(N2C(=O)N(Cc3c(F)cccc3Cl)c3ccccc3S2(=O)=O)ccn1` [Example 143, 4-(2-Chloro-6-fluorobenzyl)-2-(2-methoxypyridin-4-yl)-2H-1,2,4-benzothiadiazin-3(4H)-one 1,1-dioxide] it is 15.8 nM; for `COc1cccc(N2C(=O)N(Cc3c(F)cc(F)cc3F)c3ccccc3S2(=O)=O)n1` [Example 144, 2-(6-Methoxypyridin-2-yl)-4-(2,4,6-trifluorobenzyl)-2H-1,2,4-benzothiadiazin-3(4H)-one 1,1-dioxide] it is 50.1 nM. The figure for `COc1cc(F)c(CN2C(=O)N(c3cnc(OC)c(OC)c3)S(=O)(=O)c3ccccc32)c(F)c1` [Example 146, 4-(2,6-difluoro-4-methoxybenzyl)-2-(5,6-Dimethoxypyridin-3-yl)-2H-1,2,4-benzothiadiazin-3(4H)-one 1,1-dioxide] is 0.363 nM. In the case of `COc1ccc(N2C(=O)N(Cc3c(F)cc(F)cc3F)c3ccccc3S2(=O)=O)nc1OC` [Example 147, 2-(5,6-Dimethoxypyridin-2-yl)-4-(2,4,6-trifluorobenzyl)-2H-1,2,4-benzothiadiazin-3(4H)-one 1,1-dioxide], the Ki is 1.58 nM. With `COc1cc(N2C(=O)N(Cc3c(F)cc(F)cc3F)c3ccccc3S2(=O)=O)cc(OC)n1` [Example 148, 2-(2,6-Dimethoxypyridin-4-yl)-4-(2,4,6-trifluorobenzyl)-2H-1,2,4-benzothiadiazin-3(4H)-one 1,1-dioxide] the figure was 1.38 nM; with `COc1cc(F)c(CN2C(=O)N(c3cc(OC)nc(OC)c3)S(=O)(=O)c3ccccc32)c(F)c1` [Example 149, 4-(2,6-Difluoro-4-methoxybenzyl)-2-(2,6-dimethoxypyridin-4-yl)-2H-1,2,4-benzothiadiazin-3(4H)-one 1,1-dioxide], 0.138 nM. Take `CCn1cc(N2C(=O)N(Cc3c(F)cccc3Cl)c3ccccc3S2(=O)=O)cn1` [Example 150, 4-(2-Chloro-6-fluorobenzyl)-2-(1-ethyl-1H-pyrazol-4-yl)-2H-1,2,4-benzothiadiazin-3(4H)-one 1,1-dioxide]: the Ki is 17.4 nM.

The record behind these values is patent publication US10316028B2, “Orexin receptor antagonists” (Heptares Therapeutics Limited, priority 2012, dated 2019).
